What is called Ki is a dissociation constant, usually derived from enzyme kinetics or from competition with a known ligand. Read a high Ki as a looser hold on the target.

One assay has as its target CDK4/Cyclin D3 (Homo sapiens (Human), UniProt P11802). Put plainly: biochemical.
In a further assay the target is CDK6/Cyclin D1 (Homo sapiens (Human), UniProt Q00534). Briefly: biochemical. The settings on record: CDK6_Ki (nM), non-phosphorylated CDK6/Cyclin D1, 2 mM ATP, Morrison fit.
A further assay concerns the target CDK2/Cyclin E1 (Homo sapiens (Human), UniProt P24941). Briefly: biochemical. To be noted: CDK2_Ki (nM), phosphorylated CDK2/Cyclin E1, 150 μM ATP, Morrison tight-binding fit.
In the next assay the test system is Ovcar3 tumor xenograft. Briefly: Ovcar3 mouse tumor xenograft model. In kind it is in vivo, NSG mice. The settings on record: 10 mpk PO QD, 50 mpk PO QD and 50 mpk PO BID, 14 days. The method, then: Ovcar3 tumor cell line, purchased from ATCC (ATCC HTB-161™) was cultured in RPMI1640 (1×) media (Gibco™ cat#11875-093) with 10% FBS (Gibco™ cat #26140-079). To establish a Ovcar3 xenograft model, 5×10^6 cells per mouse was implanted subcutaneously into right hind flank NSG mice (#5557-NOD.cg-Prkdc Jackson Lab). Cells were suspended in 50% matrigel (Cultrex Basement Membrane Extract (BME), Trevigen's Basement Membrane Matrix) and 50% RPMI1640 (1×) media (Gibco™ cat#11875-093) serum free media prior to implantation.
Animals were randomized 39 days after cells implantation with each group consisted of 4 mice. Treatment began when tumors reached 100 mm^3-190 mm^3 in size. Test compounds were prepared in 40% Captisol and dosed PO at 10 and 50 mg/kg QD or at 50 mg/kg BID as a suspension for 14 days. Animals were taken down at designated time. Mice receiving no drugs were given vehicle QD or BID for 14 days. Tumor volumes were measured once prior to randomization with an electric caliper, with tumor volumes were calculated using Length×Width×Width/2 formulation. Tumor volumes were measured twice a week with an electric caliper, with tumor volumes calculated using Length×Width×Width/2 formula. Animal weights were recorded twice weekly.

In a further assay the test system is HCC1806 tumor xenograft. Put plainly: HCC1806 mouse tumor xenograft model. Format: in vivo, NU/NU female mice. To be noted: 30 mpk PO BID, 50 mpk PO BID and 75 mpk PO BID, 14 days.

Chain of CDK6/Cyclin D1 (Q00534 whole entry): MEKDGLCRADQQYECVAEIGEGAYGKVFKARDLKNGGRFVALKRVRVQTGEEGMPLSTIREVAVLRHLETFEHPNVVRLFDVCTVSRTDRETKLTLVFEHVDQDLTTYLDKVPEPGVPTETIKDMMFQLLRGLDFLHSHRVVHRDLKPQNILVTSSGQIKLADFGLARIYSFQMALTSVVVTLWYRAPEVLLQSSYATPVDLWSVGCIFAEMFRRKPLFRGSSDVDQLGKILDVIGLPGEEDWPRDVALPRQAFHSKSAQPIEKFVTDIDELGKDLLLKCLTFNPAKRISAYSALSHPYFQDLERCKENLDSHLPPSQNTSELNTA
Chain of CDK6/Cyclin D1 (P24385 whole entry partner): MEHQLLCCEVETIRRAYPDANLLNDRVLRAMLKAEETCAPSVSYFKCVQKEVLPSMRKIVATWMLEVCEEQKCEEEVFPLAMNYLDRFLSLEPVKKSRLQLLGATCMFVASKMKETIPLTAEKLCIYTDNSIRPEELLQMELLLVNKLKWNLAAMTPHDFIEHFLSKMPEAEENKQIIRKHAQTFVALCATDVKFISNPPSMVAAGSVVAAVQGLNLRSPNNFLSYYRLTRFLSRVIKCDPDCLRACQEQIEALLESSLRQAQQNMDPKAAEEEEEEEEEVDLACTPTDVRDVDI
Chain of CDK4/Cyclin D3 (P11802 whole entry): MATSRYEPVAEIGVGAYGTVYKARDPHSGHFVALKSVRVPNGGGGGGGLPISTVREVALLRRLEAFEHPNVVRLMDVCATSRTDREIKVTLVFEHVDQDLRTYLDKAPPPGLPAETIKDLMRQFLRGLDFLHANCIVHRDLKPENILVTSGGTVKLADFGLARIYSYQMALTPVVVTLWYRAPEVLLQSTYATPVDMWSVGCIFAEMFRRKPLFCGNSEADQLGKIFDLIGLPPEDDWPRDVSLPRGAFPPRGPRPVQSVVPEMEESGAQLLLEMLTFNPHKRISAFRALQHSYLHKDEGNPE
Chain of CDK4/Cyclin D3 (P30281 whole entry partner): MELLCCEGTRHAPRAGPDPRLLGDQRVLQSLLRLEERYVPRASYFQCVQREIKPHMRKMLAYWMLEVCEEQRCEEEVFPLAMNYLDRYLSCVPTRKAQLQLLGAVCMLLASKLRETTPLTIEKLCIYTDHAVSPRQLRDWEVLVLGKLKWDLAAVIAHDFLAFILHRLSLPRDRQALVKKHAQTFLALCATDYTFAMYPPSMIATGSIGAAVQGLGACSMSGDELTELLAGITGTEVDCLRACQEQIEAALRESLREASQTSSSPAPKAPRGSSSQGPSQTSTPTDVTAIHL
Experimental for CDK2/Cyclin E1: The assay was initiated with the addition of ATP, following a fifteen minutes pre-incubation of enzyme and inhibitor at room temperature in the reaction mixture. The reaction was stopped after 45 minutes at room temperature by the addition of 50 μL of 80 mM EDTA, pH 7.5.
Experimental for HCC1806 tumor xenograft: Source: HCC1806 (# CRL 2335, ATCC, Manassas, Va.)
The HCC1806 tumor cell line was cultured in RPMI1640 media supplemented with 10% Fetal Bovine Serum (FBS). To establish a HCC1806 xenograft model, 5×10^6 cells per mouse were implanted subcutaneously into right hind flank NU/NU female mice. Cells were suspended in 50% Cultrex Basement Membrane Extract and 50% RPMI 1640 media serum free media prior to implantation.
Animals were randomized 7 days after cells implantation with each group consisting of 13 mice. Treatment began when tumors reached 100 mm^3 to 170 mm^3 in size on Day 7. Test compounds were prepared in 0.1% Tween, 0.5% Methyl cellulose in water and dosed PO at 30, 50, and 75 mg/kg as a suspension BID for 14 days. Mice receiving no drugs were given vehicle BID for 14 days. Tumor volumes were measured twice a week with an electric caliper, with tumor volumes calculated using Length×Width×Width/2 formula. Animal weights were recorded twice weekly.

Turning to `C[C@@]1(O)CCC[C@H]1n1c(=O)c(F)cc2cnc(NC3CCN(S(C)(=O)=O)CC3)nc21` (single isomer, unassigned) [Example 6, (−)-6-fluoro-8-[(1R*,2R*)-2-hydroxy-2-methylcyclopentyl]-2-{[1-(methylsulfonyl)piperidin-4-yl]amino}pyrido[2,3-d]pyrimidin-7(8H)-one], the values for the inhibition constant (Ki) on CDK4/Cyclin D3, on CDK6/Cyclin D1 and at CDK2/Cyclin E1 were 3.94 nM, 2.38 nM and 0.48 nM, respectively.
With `C[C@@]1(O)CCC[C@H]1n1c(=O)c(CC#N)cc2cnc(NC3CCN(S(C)(=O)=O)CC3)nc21` (single isomer, unassigned) [Example 120, (−)-(8-[(1R*,2R*)-2-hydroxy-2-methylcyclopentyl]-2-{[1-(methylsulfonyl)piperidin-4-yl]amino}-7-oxo-7,8-dihydropyrido[2,3-d]pyrimidin-6-yl)acetonitrile], the Ki stood at 0.34 nM at CDK4/Cyclin D3, 0.18 nM on CDK6/Cyclin D1 and 0.16 nM at CDK2/Cyclin E1.
For `C[C@@]1(O)CCC[C@H]1n1c(=O)c(CCO)cc2cnc(NC3CCN(S(C)(=O)=O)CC3)nc21` (single isomer, unassigned) [Example 122, (−)-6-(2-hydroxyethyl)-8-[(1R*,2R*)-2-hydroxy-2-methylcyclopentyl]-2-{[1-(methylsulfonyl)piperidin-4-yl]amino}pyrido[2,3-d]pyrimidin-7(8H)-one], in that order: 0.92 nM, 0.23 nM and 0.11 nM.
Take `C[C@@]1(O)CCC[C@H]1n1c(=O)ccc2cnc(NC3CCN(S(C)(=O)=O)CC3)nc21` [Example 2, 8-[(1R,2R)-2-hydroxy-2-methylcyclopentyl]-2-{[1-(methylsulfonyl)piperidin-4-yl]amino}pyrido[2,3-d]pyrimidin-7(8H)-one]: the “inhibition of tumor growth (mm^3)” value with Ovcar3 tumor xenograft and with HCC1806 tumor xenograft was “dose dependent inhibition of tumor growth” throughout.
Regarding `CS(=O)(=O)N1CCC(Nc2ncc3ccc(=O)n([C@@H]4CCC[C@@H](O)C4)c3n2)CC1` [Example 3, 8-[(1R,3R)-3-hydroxycyclohexyl]-2-{[1-(methylsulfonyl)piperidin-4-yl]amino}pyrido[2,3-d]pyrimidin-7(8H)-one], the values for the inhibition constant Ki on CDK4/Cyclin D3, on CDK6/Cyclin D1 and on CDK2/Cyclin E1 were 3.43 nM, 1.17 nM and 0.26 nM, respectively.
Take `C[C@@]1(O)CCC[C@H]1n1c(=O)c(C(F)F)cc2cnc(NC3CCN(S(C)(=O)=O)CC3)nc21` [Example 10, 6-(difluoromethyl)-8-[(1R,2R)-2-hydroxy-2-methylcyclopentyl]-2-{[1-(methylsulfonyl)piperidin-4-yl]amino}pyrido[2,3-d]pyrimidin-7(8H)-one]: in the assay on HCC1806 tumor xenograft, the “inhibition of tumor growth (mm^3)” value is given as “tumor growth inhibition”.
`CCc1cc2cnc(NC3CCN(S(C)(=O)=O)CC3)nc2n(C2CCCC2)c1=O` [Example 141, 8-cyclopentyl-6-ethyl-2-{[1-(methylsulfonyl)piperidin-4-yl]amino}pyrido[2,3-d]pyrimidin-7(8H)-one]: the inhibition constant Ki at CDK6/Cyclin D1 amounted to 0.37 nM; at CDK2/Cyclin E1, 1.25 nM.
For `COCc1cc2cnc(NC3CCN(S(C)(=O)=O)CC3)nc2n(C2CCCC2)c1=O` [Example 142, 8-cyclopentyl-6-(methoxymethyl)-2-{[1-(methylsulfonyl)piperidin-4-yl]amino}pyrido[2,3-d]pyrimidin-7(8H)-one], in that order: 0.55 nM and 1.88 nM.
For `CNS(=O)(=O)N1CCC(Nc2ncc3cc(CCO)c(=O)n(C4CCCC4)c3n2)CC1` [Example 146, 4-{[8-cyclopentyl-6-(2-hydroxyethyl)-7-oxo-7,8-dihydropyrido[2,3-d]pyrimidin-2-yl]amino}-N-methylpiperidine-1-sulfonamide] the same measures were 1.1 nM and 1.51 nM.
For `CS(=O)(=O)N1CCC(Nc2ncc3cc(CC(=O)O)c(=O)n(C4CCCC4)c3n2)CC1` [Example 147, (8-cyclopentyl-2-{[1-(methylsulfonyl)piperidin-4-yl]amino}-7-oxo-7,8-dihydropyrido[2,3-d]pyrimidin-6-yl)acetic acid] the same measures were 0.45 nM and 1.57 nM.
Consider `CS(=O)(=O)N1CCC(Nc2ncc3cc(C(F)(F)F)c(=O)n(C4CCCC4)c3n2)CC1` [Example 148, 8-cyclopentyl-2-{[1-(methylsulfonyl)piperidin-4-yl]amino}-6-(trifluoromethyl)pyrido[2,3-d]pyrimidin-7(8H)-one], for which the figures for the Ki on CDK6/Cyclin D1 and on CDK2/Cyclin E1 were 0.26 nM and 4.18 nM, respectively.
For `CS(=O)(=O)N1CCC(Nc2ncc3cc(CCO)c(=O)n(C4CCCCCC4)c3n2)CC1` [Example 165, 8-cycloheptyl-6-(2-hydroxyethyl)-2-{[1-(methylsulfonyl)piperidin-4-yl]amino}-pyrido[2,3-d]pyrimidin-7(8H)-one] the same measures were 2.65 nM and 1.51 nM.
For `Cc1cc2cnc(NC3CCN(S(C)(=O)=O)CC3)nc2n([C@@H]2CCC[C@H]2O)c1=O` [Example 173, 8-[(1R,2R)-2-hydroxycyclopentyl]-6-methyl-2-{[1-(methylsulfonyl)piperidin-4-yl]amino}pyrido[2,3-d]pyrimidin-7(8H)-one], the inhibitory constant (Ki) amounted to 3.52 nM on CDK6/Cyclin D1 and 2.95 nM at CDK2/Cyclin E1.
For `CC(C)(O)CS(=O)(=O)N1CCC(Nc2ncc3ccc(=O)n([C@@H]4CCC[C@@]4(C)O)c3n2)CC1` [Example 189, 8-[(1R,2R)-2-hydroxy-2-methylcyclopentyl]-2-({1-[(2-hydroxy-2-methylpropyl)sulfonyl]piperidin-4-yl}amino)pyrido[2,3-d]pyrimidin-7(8H)-one], in that order: 1.98 nM and 1.2 nM.
Consider `C[C@@]1(O)CCC[C@H]1n1c(=O)ccc2cnc(NC3CCN(S(=O)(=O)CS(C)(=O)=O)CC3)nc21` [Example 190, 8-[(1R,2R)-2-hydroxy-2-methylcyclopentyl]-2-[(1-{[(methylsulfonyl)methyl]sulfonyl}piperidin-4-yl)amino]pyrido[2,3-d] pyrimidin-7(8H)-one], for which the figures for the inhibition constant (Ki) on CDK6/Cyclin D1 and on CDK2/Cyclin E1 were 184 nM and 0.51 nM, respectively.
For `CS(=O)(=O)N1CCC(Nc2ncc3ccc(=O)n([C@H]4CCC[C@H](O)C4)c3n2)CC1` [Example 211, 8-[(1S,3S)-3-hydroxycyclohexyl]-2-{[1-(methylsulfonyl)piperidin-4-yl]amino}pyrido[2,3-d]pyrimidin-7(8H)-one] the same measures were 2.22 nM and 2.19 nM.
For `CS(=O)(=O)N1CCC(Nc2ncc3cc(C(F)F)c(=O)n([C@@H]4CCC[C@@H](O)C4)c3n2)CC1` [Example 212, 6-(difluoromethyl)-8-[(1R,3R)-3-hydroxycyclohexyl]-2-{[1-(methylsulfonyl)piperidin-4-yl]amino}pyrido[2,3-d]pyrimidin-7(8H)-one], in that order: 0.17 nM and 1.2 nM.
For `CS(=O)(=O)N1CCC(Nc2ncc3ccc(=O)n([C@H]4CC[C@@H](O)CC4)c3n2)CC1` [Example 215, 8-(cis-4-hydroxycyclohexyl)-2-{[1-(methylsulfonyl)piperidin-4-yl]amino}pyrido[2,3-d]pyrimidin-7(8H)-one] the same measures were 2.84 nM and 1.57 nM.

The values above are taken from patent US10233188B2, “CDK2/4/6 inhibitors” (priority 2016, dated 2019).
